Test results as given in the NIST ThermoML archive (doi:10.1016/j.tca.2011.08.002).

How the values were obtained:
[1] = xn = mol fraction of the nth substance listed; conditions: 101 kPa, Liquid, Vibrating tube method
[2] = refractive index (Na D-line) (dimensionless); xn = mol fraction of the nth substance listed; conditions: 101 kPa, Liquid, Standard Abbe refractometry

C1CCC(NC2CCCCC2)CC1 [N-cyclohexylcyclohexanamine] + CCCCO
Conditions	mass density, [1] [kg/m3]	refractive index, [2]
288.15 K, x2 = 0	915.498	1.48636
288.15 K, x2 = 0.0512	914.315	1.48502
288.15 K, x2 = 0.1	912.993	1.48368
288.15 K, x2 = 0.2005	909.753	1.48027
288.15 K, x2 = 0.3005	905.695	1.47614
288.15 K, x2 = 0.4005	900.544	1.47121
288.15 K, x2 = 0.5	893.978	1.46517
288.15 K, x2 = 0.6002	885.407	1.45768
288.15 K, x2 = 0.7002	874.118	1.44826
288.15 K, x2 = 0.7984	859.411	1.43656
288.15 K, x2 = 0.8999	839.302	1.42104
288.15 K, x2 = 0.9493	827.33	1.41197
293.15 K, x2 = 0	911.705	1.48416
293.15 K, x2 = 0.0512	910.505	1.4828
293.15 K, x2 = 0.1	909.162	1.48147
293.15 K, x2 = 0.2005	905.869	1.47804
293.15 K, x2 = 0.3005	901.749	1.4739
293.15 K, x2 = 0.4005	896.535	1.46892
293.15 K, x2 = 0.5	889.912	1.46289
293.15 K, x2 = 0.6002	881.306	1.45538
293.15 K, x2 = 0.7002	870.025	1.44587
293.15 K, x2 = 0.7984	855.383	1.43432
293.15 K, x2 = 0.8999	835.393	1.4189
293.15 K, x2 = 0.9493	823.486	1.40987
298.15 K, x2 = 0	907.923	1.48198
298.15 K, x2 = 0.0512	906.698	1.4806
298.15 K, x2 = 0.1	905.333	1.47926
298.15 K, x2 = 0.2005	901.986	1.47579
298.15 K, x2 = 0.3005	897.806	1.47165
298.15 K, x2 = 0.4005	892.53	1.46666
298.15 K, x2 = 0.5	885.853	1.46059
298.15 K, x2 = 0.6002	877.207	1.45309
298.15 K, x2 = 0.7002	865.925	1.44368
298.15 K, x2 = 0.7984	851.344	1.43208
298.15 K, x2 = 0.8999	831.466	1.41673
298.15 K, x2 = 0.9493	819.618	1.40779
303.15 K, x2 = 0	904.144	1.47978
303.15 K, x2 = 0.0512	902.899	1.47842
303.15 K, x2 = 0.1	901.51	1.47704
303.15 K, x2 = 0.2005	898.104	1.47358
303.15 K, x2 = 0.3005	893.865	1.46939
303.15 K, x2 = 0.4005	888.526	1.4644
303.15 K, x2 = 0.5	881.79	1.45831
303.15 K, x2 = 0.6002	873.106	1.4508
303.15 K, x2 = 0.7002	861.822	1.44139
303.15 K, x2 = 0.7984	847.289	1.42985
303.15 K, x2 = 0.8999	827.516	1.4146
303.15 K, x2 = 0.9493	815.728	1.40565
308.15 K, x2 = 0	900.372	1.47761
308.15 K, x2 = 0.0512	899.101	1.47623
308.15 K, x2 = 0.1	897.686	1.47485
308.15 K, x2 = 0.2005	894.222	1.47136
308.15 K, x2 = 0.3005	889.919	1.46716
308.15 K, x2 = 0.4005	884.519	1.46213
308.15 K, x2 = 0.5	877.726	1.45604
308.15 K, x2 = 0.6002	868.997	1.44852
308.15 K, x2 = 0.7002	857.708	1.43914
308.15 K, x2 = 0.7984	843.219	1.42763
308.15 K, x2 = 0.8999	823.538	1.41241
308.15 K, x2 = 0.9493	811.807	1.40352
313.15 K, x2 = 0	896.608	1.47562
313.15 K, x2 = 0.0512	895.307	1.47419
313.15 K, x2 = 0.1	893.863	1.47267
313.15 K, x2 = 0.2005	890.338	1.4691
313.15 K, x2 = 0.3005	885.971	1.46487
313.15 K, x2 = 0.4005	880.507	1.45979
313.15 K, x2 = 0.5	873.654	1.45368
313.15 K, x2 = 0.6002	864.881	1.44613
313.15 K, x2 = 0.7002	853.579	1.43676
313.15 K, x2 = 0.7984	839.126	1.42522
313.15 K, x2 = 0.8999	819.533	1.41016
313.15 K, x2 = 0.9493	807.851	1.40134
318.15 K, x2 = 0	892.847	1.47347
318.15 K, x2 = 0.0512	891.512	1.472
318.15 K, x2 = 0.1	890.04	1.47049
318.15 K, x2 = 0.2005	886.452	1.46689
318.15 K, x2 = 0.3005	882.018	1.46265
318.15 K, x2 = 0.4005	876.487	1.45753
318.15 K, x2 = 0.5	869.572	1.4514
318.15 K, x2 = 0.6002	860.75	1.44384
318.15 K, x2 = 0.7002	849.434	1.43447
318.15 K, x2 = 0.7984	835.005	1.42299
318.15 K, x2 = 0.8999	815.488	1.40798
318.15 K, x2 = 0.9493	803.854	1.39919
323.15 K, x2 = 0	889.089	1.47134
323.15 K, x2 = 0.0512	887.718	1.46985
323.15 K, x2 = 0.1	886.213	1.46835
323.15 K, x2 = 0.2005	882.559	1.46474
323.15 K, x2 = 0.3005	878.053	1.46049
323.15 K, x2 = 0.4005	872.455	1.45537
323.15 K, x2 = 0.5	865.476	1.4492
323.15 K, x2 = 0.6002	856.603	1.44162
323.15 K, x2 = 0.7002	845.267	1.43225
323.15 K, x2 = 0.7984	830.854	1.42074
323.15 K, x2 = 0.8999	811.404	1.40571
323.15 K, x2 = 0.9493	799.814	1.39701
